For data set [1] the following is noted: buffer, 720 h, pH 5; cited from earlier work.
In data set [2] the test system is experimental autoimmune encephalomyelitis (EAE). On the set-up: method as in PMID 25938431. Particulars: EAE mice, three days of treatment, intraperitoneal 3.5 mg/kg; reduced from 4; cited from earlier work.
A short description of data set [3]: Identification of violacein metabolites in HLMs by LC-QTOF. Type of data set: in vitro ADME, human. Particulars: all samples after 120 min of reaction, 105 µM violacein, 5 mg/mL protein. Here is the method:
The metabolism of violacein was investigated using HLMs and RLMs, by incubating the samples for 120 min under four conditions (n = 1): zero sample, phase I-only incubation, phase I and II incubation, and phase II-only incubation, as described by Godoi et al..
For all samples, 25 µL of the 843 µM violacein stock solution was added to propylene tubes and evaporated to dryness under a nitrogen stream. The dried residue was then reconstituted with 2 µL of methanol, ensuring that the final organic solvent concentration remained below 1% to minimize any potential impact on microsomal activity, as described by Jia et al..
To assess phase I metabolism, 148 μL of an NADPH-regenerating system containing 1.1 mM NADP+, 10 mM glucose-6-phosphate, 1 U/mL glucose-6-phosphate dehydrogenase, 5 mM sodium citrate, and 66 mM magnesium chloride in 100 mM phosphate buffer (pH 7.4) were added to the tubes. The solutions were pre-incubated for 5 min at 37 °C and 300 rpm in an MTC 100 thermo shaker incubator, and metabolic reactions were initiated by adding 50 μL of HLMs or RLMs (20 mg/mL), to yield final concentrations of 105 µM violacein and 5 mg of microsomal protein/mL. […]
The acquired chromatograms and mass spectra were analyzed using Insight Explore software version 1.0.0.0 (Shimadzu, Kyoto, Japan). […]

Data set [4] has as its system P. falciparum W2 strain (chloroquine-resistant). The arrangement: method as in PMID 29642881, PMID 33689276. Particulars: cited from earlier work.

Regarding `O=C1NC(c2c[nH]c3ccc(O)cc23)=C/C1=C1\C(=O)Nc2ccccc21` [violacein], the “Residual pigment remaining unaltered” value in data set [1] is “more than 80%”. Besides, in data set [2], the Maximum clinical score is 2. In addition, the Violacein metabolized in data set [3] came to 30%. Also, the IC50 (usually the concentration needed to halve the response being measured) in data set [4] was 500 nM.

Values taken from PMC12114947, “Evaluation of Violacein Metabolic Stability and Metabolite Identification in Human, Mouse, and Rat Liver Microsomes” (Pharmaceutics, 2025).
